The text below walks through data of patent US20250161332A1, “NON-PSYCHOACTIVE MULTI-CANNABINOID AND POLYSACCHARIDE AND POLYSACCHAROPEPTIDE-BASED THERAPEUTIC COMPOSITIONS AND METHODS OF THEIR ADMINISTRATIO” (Pebble Global Holdings, priority 2021, published 2025).

Each structure is given as a SMILES string. pIC50: −log10 of the molar value. Where only a bound is given, the exact number is not on record here.

Data set [1] has as its system ALL. Conditions: cited from earlier work.
In data set [2] the test system is normal endothelial cells. Particulars: cited from earlier work.
In data set [3] the test system is leukemia (P388), liver cancer (HepG2), skin melanoma (B16-F10), and myelogenous leukemia (K562). Particulars: range over the four cell lines; cited from earlier work.
Data set [4] concerns B16-F10 melanoma. Conditions: cited from earlier work.
For data set [5] the following is noted: cited from earlier work; for circulating metabolite as percent of the parent based on plasma AUC of cannabidiol: in vivo.
Data set [6] deals with animal models of epilepsy. Conditions: in vivo; cited from earlier work.
The conditions of data set [7]: treatment regimens, cited from earlier work; for nausea and gastrointestinal (GI) AEs, occurrence: single agents.
Data set [8] deals with ovarian cancer cell lines. In words: Cell viability assay (tetrazolium to formazan), 10 ovarian cancer cell lines. The data set is classed as cell-based. Conditions: 72 h. From the text:
Synergistic relationships for combinations of terpenoids and cannabinoids have been reported Russo, E. B. and J. Marcu, Chapter Three—Cannabis Pharmacology: The Usual Suspects and a Few Promising Leads, in Advances in Pharmacology, D. Kendall and S. P. H. Alexander, Editors. 2017, Academic Press. p. 67-134, the entire disclosure of which is incorporated herein by reference This observed synergy was strongly dependent on the ratio and origin of terpenoids, as shown in triple negative breast cancer models. In addition, many cannabinoids and terpenoids are immune suppressors as reported for alpha-bisabolol, which activates TGF to promote the differentiation of macrophages into the M2 phenotype (tumor promoting) and regulatory T cells. Ovarian cancer cell lines tested included A2780ip2, A2780CP20, HeyA8, HeyA8-MDR, SKOV3 and OVCAR3 and were maintained in RPMI 1640 supplemented with 10-15% fetal bovine serum and 0.1% gentamicin sulfate (available from Gemini Bioproducts, Calabasas, CA, USA). OVCAR5 cells were maintained in Dulbecco's modified Eagle's medium with 10% fetal bovine serum and 0.1% gentamicin sulfate. 1D8 murine ovarian cancer cells were maintained in Dulbecco modified
Eagle medium containing 10% fetal bovine serum (FBS), lx insulin-transferrin-selenium (available from Thermo Fisher Scientific, Waltham, MA), and 0.5% gentamicin. All above cells were cultured at 37° C. using a 5% C02 incubator. All in vitro experiments were performed with 70-80% confluent cultures and a passage number […].
Example 7. Cell viability assays. Cell viability assays were performed by testing ovarian cancer cells' metabolic ability to reduce the tetrazolium salt 3-(4,5-dimethylthiazol-2-yl)-5-(3-carboxymethoxyphenyl)-2-(4-sulfophenyl)-2H-tetrazolium (inner salt) to a formazan. […] Activities for each reagent were determined using Hill plot analyses (Graphpad Prism 8 software) to assess the half maximal effect—ICso. Results. […]

Data set [9] deals with OVCAR5 Luc. The data set can be described thus: In vivo dose finding and efficacy study, orthotopic xenograft model for ovarian cancer. The arrangement: species or system nude mice. As for the experimental part: Example 10. In vivo dose finding and efficacy study. The purpose of this study was to determine the safety and efficacy of single agent CBD and annelix in an orthotopic xenograft model for ovarian cancer. This mouse model resembles the disease of ovarian cancer in humans with development of tumor nodules in the abdominal cavity and development of ascites. Method. Luciferase transfected human ovarian tumor cells, OVCAR5 Luc (1.0 million) were injected into the peritoneal cavity of nude mice, intra peritoneally (i.p.). On day 8 after tumor cell injection IVIS® optical imaging was performed to confirm tumor establishment. […] The study was an approved protocol of the MD Anderson Cancer Center (MDACC) Institutional Animal Care and Use Committee (IACUC). […] Mice were sacrificed on day 32 (post inoculation of cells) and tumors were harvested. Body weights, tumor weight, number of tumor nodules and ascites volumes were recorded. Results: The body weights, tumor weights, tumor nodules and ascites volumes for each of the treatment groups are shown in FIG. 4. […] Control mice received corn oil injections. Body weights were not affected by either the dose of annelix (aq.), nor by the dose of CBD in this study.

Data set [10] deals with A2780 and OVCAR5. The data set can be described thus: Reverse Phase Protein Array (RPPA) and Ingenuity Pathway Analysis. Type of data set: cell-based. Particulars: 5 μM (CBD content). From the text: Example 11. Protein Expression Level Effects. […] Results.
For data set [11], the target named is CB2 (Homo sapiens, UniProt P34972). Particulars: cited from earlier work.
Sequence of CB2 (P34972 whole entry, species assumed): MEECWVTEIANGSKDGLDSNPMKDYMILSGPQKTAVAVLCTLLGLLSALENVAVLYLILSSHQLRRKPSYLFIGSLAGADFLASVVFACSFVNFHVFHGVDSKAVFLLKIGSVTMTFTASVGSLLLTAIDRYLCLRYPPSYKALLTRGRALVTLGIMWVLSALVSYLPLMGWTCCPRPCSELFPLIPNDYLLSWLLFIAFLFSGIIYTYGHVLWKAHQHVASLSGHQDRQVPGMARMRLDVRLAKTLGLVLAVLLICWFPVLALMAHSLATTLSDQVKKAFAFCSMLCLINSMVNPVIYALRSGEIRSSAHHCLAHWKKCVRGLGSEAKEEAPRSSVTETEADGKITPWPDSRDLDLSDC
Data set [12] has as its target GPR55 (Homo sapiens, UniProt Q9Y2T6). Conditions: cited from earlier work.
The target in data set [13] is T1, 5 HT1A receptor (Homo sapiens, UniProt P08908).
T1 sequence (P08908 1-422): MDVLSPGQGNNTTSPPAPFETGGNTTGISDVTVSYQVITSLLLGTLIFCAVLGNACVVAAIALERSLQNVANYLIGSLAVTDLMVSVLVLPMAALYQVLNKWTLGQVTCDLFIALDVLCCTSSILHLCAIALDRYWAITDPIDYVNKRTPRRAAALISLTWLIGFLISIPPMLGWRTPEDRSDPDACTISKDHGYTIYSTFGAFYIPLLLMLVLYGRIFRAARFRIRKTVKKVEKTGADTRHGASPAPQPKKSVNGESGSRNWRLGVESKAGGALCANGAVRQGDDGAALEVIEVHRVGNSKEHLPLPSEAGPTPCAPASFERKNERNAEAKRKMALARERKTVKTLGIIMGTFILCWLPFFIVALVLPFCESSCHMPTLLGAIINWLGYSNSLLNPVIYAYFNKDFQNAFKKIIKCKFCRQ
Particulars: cited from earlier work.

Sequence of GPR55 (Q9Y2T6 whole entry, species assumed): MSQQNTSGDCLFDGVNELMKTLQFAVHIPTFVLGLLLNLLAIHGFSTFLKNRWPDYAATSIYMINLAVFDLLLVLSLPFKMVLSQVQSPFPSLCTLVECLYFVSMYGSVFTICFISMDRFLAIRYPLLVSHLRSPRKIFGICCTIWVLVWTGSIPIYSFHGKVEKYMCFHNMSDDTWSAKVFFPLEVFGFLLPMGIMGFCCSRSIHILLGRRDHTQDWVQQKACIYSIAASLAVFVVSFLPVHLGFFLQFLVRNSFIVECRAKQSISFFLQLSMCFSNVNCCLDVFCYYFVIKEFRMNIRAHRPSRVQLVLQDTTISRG

On to `CC(C)=CCC[C@](C)(O)[C@@H]1CC=C(C)CC1` [alpha-bisabolol, (2S)-6-Methyl-2-[(1S)-4-methylcyclohex-3-en-1-yl]hept-5-en-2-ol], for which the pIC50 (in general, the negative decadic logarithm of the IC50, by convention in mol/L) in data set [1] is 4.14; in [2] it was 5.30.
For `CC1=CC=C(C(C)C)CC1` [alpha-terpinene, 1-Isopropyl-4-methyl-1,3-cyclohexadiene], in [3], the pIC50 was 3.74 to 4.22.
In the case of `C=C1C2CCC(C2)C1(C)C` (stereo not drawn) [camphene, 2,2-Dimethyl-3-methyllidenebicyclo[2.2.1]heptane], the pIC50 in data set [4] was 3.28.
In the case of `C=C(C)[C@@H]1C[C@H](O)C(C)=C[C@H]1c1c(O)cc(CCCCC)cc1O` [6-OH-CBD, 6-hydroxy-cannabidiol], the “circulating metabolite as percent of the parent based on plasma AUC of cannabidiol” value in [5] was < 10%.
For `C=C(C)[C@@H]1CCC(C(=O)O)=C[C@H]1c1c(O)cc(CCCCC)cc1O` [7-COOH-CBD, 7-carboxy-cannabidiol], the “circulating metabolite level relative to parent” value in data set [5] (higher than the parent cannabidiol) was “approximately 40 fold”. Besides, the result in [6] was inactive.
With `CC[C@@]1(O)C(=O)OCc2c1cc1n(c2=O)Cc2cc3c(CN(C)C)c(O)ccc3nc2-1` [topotecan], the “nausea and gastrointestinal (GI) AEs, occurrence” value in data set [7] is given as 63%.
For `CCCCCc1cc(O)c2c(c1)OC(C)(CCC=C(C)C)C=C2` (stereo not drawn) [CBC, cannabichromene], in data set [8], the pIC50 was 4.30 to 4.59.
On the same count and under the same terms, the value for `CCCCCc1cc(O)c(C/C=C(\C)CCC=C(C)C)c(O)c1` [CBG, cannabigerol] was 4.46 to 4.77.
Regarding `C=C(C)[C@@H]1CCC(CO)=C[C@H]1c1c(O)cc(CCCCC)cc1O` [7-OH-CBD, 7-hydroxy-cannabidiol], the “circulating metabolite as percent of the parent based on plasma AUC of cannabidiol” value in [5] was “approximately 38%”. In [6], the activity entry is “equipotent and active”.
On to `Nc1ccn([C@@H]2O[C@H](CO)[C@@H](O)C2(F)F)c(=O)n1` [gemcitabine], for which the “nausea and gastrointestinal (GI) AEs, occurrence” value in [7] is reported as 69%.
As for `N.N.[Cl][Pt][Cl]` [cisplatinum], in data set [7], the “Neuropathy and neurological symptoms, occurrence” value is 94%.
As for `C=C(C)[C@@H]1CCC(C)=C[C@H]1c1c(O)cc(CCCCC)cc1O` [CBD, cannabidiol], in data set [8], the pIC50 is 4.83 to 5.11. Moreover, the “tumor burden compared to control group” value in data set [9] (50 mg/kg i.p.) is listed as “reduction in tumor burden”. The ascites volume entry in data set [9] (50 mg/kg i.p., statistical significance not reached) is “controlled”. The body weights result in data set [9] (1, 10 and 50 mg/kg based on CBD content, i.p., 3 times per week until day 32) was “not affected”. Moreover, in [9] (1, 10 and 50 mg/kg, i.p., 3 times per week until day 32), the “tolerability / adverse effects” value is “well tolerated and did not cause any adverse effects”. In data set [10] (8 and 24 hours), the “most affected pathways versus DMSO” value is “HER-2 signaling in breast cancer, PI3/AKT signaling, molecular mechanisms of cancer, systemic lupus erythematosus in B cell signaling pathway, and autophagy”; the most upstream regulators result is “p53, AKT, E2F1, beta-estradiol and ERBB2”. Moreover, the “cell cycle checkpoint and DNA damage repair pathway proteins (Weel, CDC25, Rad51, chkl, ATR, ATM and p53)” value in [10] (compared to DMSO control) is “very few proteins, including ATR and CDC25, were downregulated”. Also, in data set [5] (liver and gut), the enzymes primarily metabolizing entry is “CYP2C19, CYP3A4, and UGT1A7, UGT1A9, and UGT2B7”. The activity entry in [6] is “equipotent and active”. For the same molecule, in data set [11], the “affinity for CB2 receptor” value is “little affinity”. Besides, the “mode of action at GPR55” value in data set [12] is “antagonist”. For the same molecule, in [13], the “mode of action at 5 HT1A receptor” value is “agonist”.
